Reference: patent US9284306B2, “(R)-Nifuratel, its use for the treatment of infections and synthesis of (R) and (S)-Nifuratel” (POLICHEM SA, priority 2012, dated 2016)
Values after ≈ are worked out from the molar mass of the structure shown.

Key:
in vivo [1] = conditions: male, rat, iv, 2 mg/kg
in vivo [2] = conditions: male, rat, po, 15 mg/kg
Atopobium vaginae = experiment: MIC, agar dilution; format: cell-based; conditions: Fannyhessea vaginae
Method: (§1) Micrococcus pyogenes (ATCC 11631), Bacillus subtilis (ATCC 11774), Lactobacillus iners (ATCC 55195), Escherichia coli (ATCC 11775), Proteus mirabilis (ATCC 14153), Klebsiella pneumoniae (ATCC 10031), Shigella sonnei (ATCC 11060), Neisseria gonorrhoeae (ATCC 19424), Salmonella typhimurium (ATCC 14028) Salmonella paratyphi B (ATCC 10719), Helicobacter pylori (ATCC 43504) and several strains of Atopobium vaginae and Gardnerella vaginalis.
(§2) Strains were prepared from freeze-dried pellets. An isolation of the suspensions (to test the strains purity) and a strains massive growth were made by streaking microbial suspensions on agar media. The bacterial colonies on agar plates were collected with 3-5 mL of specific liquid medium+15% glycerol and then the aliquots were frozen at −80° C.
(§3) Compounds Minimal Inhibitory Concentration (MIC) was determined through broth micro-dilution susceptibility testing with a method developed following the National Committee for Clinical Laboratory Standards (CLSI) M07-A8 and M11-A7 references. Assays were carried out in specific media (Table 3). The tests were performed either following the broth microdilution assay or the agar dilution assay. Compounds stock solutions were made at 12.8 mg/mL in DMSO 100%. A series of twofold dilutions were then prepared using the strain specific broth. Final concentrations were from 0.125 μg/mL to 64 μg/mL at 1% DMSO. MIC is defined as the lowest concentration of antibacterial agent which prevent any visible growth.

Gardnerella vaginalis = experiment: MIC, agar dilution; format: cell-based
Method: as §1, §2, §3

[3] = tested on: Neisseria gonorrhoeae ATCC 19424; experiment: MIC, broth microdilution; format: cell-based; conditions: Neisseria gonorrhoeae, ATCC19424
Method: as §1, §2, §3

[4] = tested on: Salmonella paratyphi B ATCC 10719; experiment: MIC, broth microdilution; format: cell-based; conditions: Salmonella enterica
Method: as §1, §2, §3

Bacillus subtilis = experiment: MIC, broth microdilution; format: cell-based
Method: as §1, §2, §3

[5] = tested on: Micrococcus pyogenes ATCC 11631; experiment: MIC, broth microdilution; format: cell-based; conditions: Staphylococcus aureus, ATCC11631
Method: as §1, §2, §3

[6] = tested on: Shigella sonnei ATCC 11060; experiment: MIC, broth microdilution; format: cell-based; conditions: ATCC11060
Method: as §1, §2, §3

[7] = tested on: Escherichia coli ATCC 11775; experiment: MIC, broth microdilution; format: cell-based; conditions: Escherichia coli, ATCC11775
Method: as §1, §2, §3

[8] = tested on: Helicobacter pylori ATCC 43504; experiment: MIC, broth microdilution; format: cell-based; conditions: Helicobacter pylori, ATCC43504
Method: as §1, §2, §3

[9] = tested on: Klebsiella pneumonia ATCC 10031; experiment: MIC, broth microdilution; format: cell-based; conditions: Klebsiella pneumoniae, ATCC10031
Method: as §1, §2, §3

[10] = tested on: Proteus mirabilis ATCC 14153; experiment: MIC, broth microdilution; format: cell-based; conditions: Proteus mirabilis, ATCC14153
Method: as §1, §2, §3

[11] = tested on: Salmonella typhimurium ATCC 14028; experiment: MIC, broth microdilution; format: cell-based; conditions: Salmonella enterica
Method: as §1, §2, §3

[12] = tested on: Lactobacillus iners ATCC 55195; experiment: MIC, broth microdilution; format: cell-based; conditions: Lactobacillus iners, ATCC55195
Method: as §1, §2, §3

## CSCC1CN(/N=C/c2ccc([N+](=O)[O-])o2)C(=O)O1 (racemic) [Nifuratel racemate, Nifuratel]
In vivo [1]
  AUC(0-inf): 125 ng·h/mL
  AUC(0-t): 122 ng·h/mL
  Clast: 5 ng/mL
  Cmax: 555 ng/mL
  MRT: 13 min
  Tlast: 120 min
  Tmax: 2 min
  VSR: 4.5 L/kg
  clearance: 267 mL/min/kg
  half-life: 24 min
In vivo [2]
  AUC(0-t): 20.3 ng·h/mL
  Clast: 3 ng/mL
  Cmax: 8 ng/mL
  MRT: 109 min
  Tlast: 240 min
  Tmax: 30 min
  half-life: 182 min
Atopobium vaginae; CCUG38953
  MIC: 0.125 µg/mL (≈ 0.438 µM)
Atopobium vaginae; CCUG39382
  MIC: 0.25 µg/mL (≈ 0.876 µM)
Atopobium vaginae; CCUG42099
  MIC: 0.5 µg/mL (≈ 1.75 µM)
Atopobium vaginae; CCUG43049
  MIC: 0.25 µg/mL (≈ 0.876 µM)
Atopobium vaginae; CCUG44061
  MIC: 0.5 µg/mL (≈ 1.75 µM)
Atopobium vaginae; CCUG44156
  MIC: 0.5 µg/mL (≈ 1.75 µM)
Atopobium vaginae; CCUG48515
  MIC: 1 µg/mL (≈ 3.51 µM)
Atopobium vaginae; CCUG55226
  MIC: 1 µg/mL (≈ 3.51 µM)
Atopobium vaginae; CCUG55227
  MIC: 0.25 µg/mL (≈ 0.876 µM)
Gardnerella vaginalis; ATCC14018, agar dilution, Gardnerella vaginalis ATCC 14018
  MIC: 2 µg/mL (≈ 7.01 µM)
Gardnerella vaginalis; agar dilution, Gardnerella vaginalis C2
  MIC: 8 µg/mL (≈ 28 µM)
Gardnerella vaginalis; agar dilution, Gardnerella vaginalis D2
  MIC: 4 µg/mL (≈ 14 µM)
Gardnerella vaginalis; agar dilution, Gardnerella vaginalis E2
  MIC: 2 µg/mL (≈ 7.01 µM)
Gardnerella vaginalis; agar dilution, Gardnerella vaginalis G2
  MIC: 2 µg/mL (≈ 7.01 µM)
Gardnerella vaginalis; agar dilution, Gardnerella vaginalis H2
  MIC: 1 µg/mL (≈ 3.51 µM)
Gardnerella vaginalis; agar dilution, Gardnerella vaginalis J2
  MIC: 2 µg/mL (≈ 7.01 µM)
Gardnerella vaginalis; agar dilution, Gardnerella vaginalis K2
  MIC: 4 µg/mL (≈ 14 µM)
[3]
  MIC: 0.25 µg/mL (≈ 0.876 µM)
[4]
  MIC: 2 µg/mL (≈ 7.01 µM)
Bacillus subtilis
  MIC: 0.5 µg/mL (≈ 1.75 µM)
[5]
  MIC: 1 µg/mL (≈ 3.51 µM)
[6]
  MIC: 1 µg/mL (≈ 3.51 µM)
[7]
  MIC: 1 µg/mL (≈ 3.51 µM)
[8]
  MIC: 0.125 µg/mL (≈ 0.438 µM)
[9]
  MIC: 2 µg/mL (≈ 7.01 µM)
[10]
  MIC: 8 µg/mL (≈ 28 µM)
[11]
  MIC: 4 µg/mL (≈ 14 µM)
[12]
  MIC: 16 µg/mL (≈ 56.1 µM)
